Measurements taken from the RepoRT retention time repository.

Experiment: HILIC, HILICON iHILIC-(P) Classic, HILIC, PEEK, 50 × 2.1 mm, 5 µm, 30 °C, 0.12 mL/min, estimated dead time 0.92 min; A: water + 20 mM ammonium carbonate + 10 mM ammonium hydroxide; B: acetonitrile; gradient (min/%B) 0/90 1/90 21/20 21.5/20 23.5/20 24.5/90 26/90 26.5/90
Conditions: stereoisomer not certain

Question: Which LC retention time does the source give for `O=C(O)CC(O)C(=O)O` (stereo not drawn) [Malic Acid] here?
Answer: 12.9 min

Question: With `NC(CCC(=O)NC(CSSCC(NC(=O)CCC(N)C(=O)O)C(=O)NCC(=O)O)C(=O)NCC(=O)O)C(=O)O` (stereo not drawn) [GSSG] as the compound, how does the LC retention time read?
Answer: 15.4 min

Question: For `O=C(O)C1CCCN1` (stereo not drawn) [Proline], which LC retention time is on record?
Answer: 6.54 min

Question: For `NC(=O)C1=CN(C2OC(COP(=O)(O)OP(=O)(O)OCC3OC(n4cnc5c(N)ncnc54)C(O)C3O)C(O)C2O)C=CC1` (stereo not drawn) [NADH], which LC retention time is on record?
Answer: 9.31 min

Question: Which LC retention time does the source give for `O=C(O)CCC(=O)O` [Succinic Acid] here?
Answer: 11.6 min

Question: With `Nc1ncnc2c1ncn2C1OC(COP(=O)(O)O)C(O)C1O` (stereo not drawn) [AMP] as the compound, how does the LC retention time read?
Answer: 8.72 min

Question: Which LC retention time does the source give for `NC(CO)C(=O)O` (stereo not drawn) [Serine] here?
Answer: 8.67 min

Question: With `CC(C)C(N)C(=O)O` (stereo not drawn) [Valine] as the compound, how does the LC retention time read?
Answer: 6.3 min

Question: Which LC retention time does the source give for `Nc1ccn(C2OC(COP(=O)(O)O)C(O)C2O)c(=O)n1` (stereo not drawn) [CMP] here?
Answer: 11.1 min

Question: Which LC retention time does the source give for `O=c1ccn(C2OC(COP(=O)(O)OP(=O)(O)OP(=O)(O)O)C(O)C2O)c(=O)[nH]1` (stereo not drawn) [UTP] here?
Answer: 14.2 min

Question: With `NC(Cc1ccccc1)C(=O)O` (stereo not drawn) [Phenylalanine] as the compound, how does the LC retention time read?
Answer: 5.17 min

Question: With `CSCCC(N)C(=O)O` (stereo not drawn) [Methionine] as the compound, how does the LC retention time read?
Answer: 5.98 min

Question: With `CC(O)C(=O)O` (stereo not drawn) [Lactic Acid] as the compound, how does the LC retention time read?
Answer: 3.24 min

Question: Which LC retention time does the source give for `O=C(O)CC(O)(CC(=O)O)C(=O)O` [Citric acid] here?
Answer: 16.6 min

Question: For `NC(=O)CCC(N)C(=O)O` (stereo not drawn) [Glutamine], which LC retention time is on record?
Answer: 8.38 min

Question: With `CC(=O)SCCNC(=O)CCNC(=O)C(O)C(C)(C)COP(=O)(O)OP(=O)(O)OCC1OC(n2cnc3c(N)ncnc32)C(O)C1OP(=O)(O)O` (stereo not drawn) [Acetyl-CoA] as the compound, how does the LC retention time read?
Answer: 8.53 min

Question: Which LC retention time does the source give for `O=C(O)CC(C(=O)O)C(O)C(=O)O` (stereo not drawn) [Isocitric acid] here?
Answer: 16.1 min

Question: Which LC retention time does the source give for `NCCCCC(N)C(=O)O` (stereo not drawn) [Lysine] here?
Answer: 18.8 min

Question: Which LC retention time does the source give for `Nc1nc2c(ncn2C2OC(COP(=O)(O)OP(=O)(O)O)C(O)C2O)c(=O)[nH]1` (stereo not drawn) [GDP] here?
Answer: 14.8 min

Question: Which LC retention time does the source give for `Nc1nc2c(ncn2C2OC(CO)C(O)C2O)c(=O)[nH]1` (stereo not drawn) [Guanosine] here?
Answer: 6.51 min

Question: For `Nc1ncnc2c1ncn2C1OC(COP(=O)(O)OP(=O)(O)OP(=O)(O)O)C(O)C1O` (stereo not drawn) [ATP], which LC retention time is on record?
Answer: 13.5 min

Question: With `O=C(O)CC(=O)O` [Malonic Acid] as the compound, how does the LC retention time read?
Answer: 9.18 min

Question: With `O=P(O)(O)OCC1OC(O)(COP(=O)(O)O)C(O)C1O` (stereo not drawn) [Fructose-1,6-bisphosphate] as the compound, how does the LC retention time read?
Answer: 16 min

Question: For `CC(C)CC(N)C(=O)O` (stereo not drawn) [Leucine], which LC retention time is on record?
Answer: 5.52 min

Question: Which LC retention time does the source give for `CC(=O)NC(CC(=O)O)C(=O)O` (stereo not drawn) [N-Acetylaspartic acid] here?
Answer: 9.45 min

Question: Which LC retention time does the source give for `Nc1ncnc2c1ncn2C1OC(COP(=O)(O)OP(=O)(O)O)C(O)C1O` (stereo not drawn) [ADP] here?
Answer: 12.3 min

Question: For `NCCCC(N)C(=O)O` (stereo not drawn) [Ornithine], which LC retention time is on record?
Answer: 18.1 min

Question: With `Nc1ccn(C2OC(CO)C(O)C2O)c(=O)n1` (stereo not drawn) [Cytidine] as the compound, how does the LC retention time read?
Answer: 5.88 min

Question: Which LC retention time does the source give for `Nc1ccn(C2OC(COP(=O)(O)OP(=O)(O)O)C(O)C2O)c(=O)n1` (stereo not drawn) [CDP] here?
Answer: 13.2 min

Question: For `O=P(O)(O)OCC(O)CO` (stereo not drawn) [Glycerol-3-phosphate], which LC retention time is on record?
Answer: 10.9 min

Question: Which LC retention time does the source give for `Nc1nc2c(ncn2C2OC(COP(=O)(O)O)C(O)C2O)c(=O)[nH]1` (stereo not drawn) [GMP] here?
Answer: 14.2 min

Question: With `CCC(C)C(N)C(=O)O` (stereo not drawn) [Isoleucine] as the compound, how does the LC retention time read?
Answer: 5.8 min

Question: With `NC(=O)c1ccc[n+](C2OC(COP(=O)([O-])O)C(O)C2O)c1` (stereo not drawn) [NMN] as the compound, how does the LC retention time read?
Answer: 9.92 min

Question: For `NC(Cc1ccc(O)cc1)C(=O)O` (stereo not drawn) [Tyrosine], which LC retention time is on record?
Answer: 6.96 min

Question: Which LC retention time does the source give for `NC(CSSCC(N)C(=O)O)C(=O)O` (stereo not drawn) [Cystine] here?
Answer: 11.6 min

Question: Which LC retention time does the source give for `O=C(O)C(CO)OP(=O)(O)O` (stereo not drawn) [Phosphoglyceric acid A] here?
Answer: 13.6 min

Question: Which LC retention time does the source give for `O=C1OC(C(O)CO)C(O)=C1O` (stereo not drawn) [Ascorbic Acid] here?
Answer: 9.17 min

Question: For `NC(CCC(=O)O)C(=O)O` (stereo not drawn) [Glutamic acid], which LC retention time is on record?
Answer: 9.84 min

Question: For `Nc1ncnc2c1ncn2C1OC(CO)C(O)C1O` (stereo not drawn) [Adenosine], which LC retention time is on record?
Answer: 3.59 min

Question: Which LC retention time does the source give for `NC(Cc1c[nH]c2ccccc12)C(=O)O` (stereo not drawn) [Tryptophan] here?
Answer: 6.14 min

Question: With `NC(=O)C1=CN(C2OC(COP(=O)(O)OP(=O)(O)OCC3OC(n4cnc5c(N)ncnc54)C(OP(=O)(O)O)C3O)C(O)C2O)C=CC1` (stereo not drawn) [NADPH] as the compound, how does the LC retention time read?
Answer: 16.9 min

Question: With `O=C(O)CCCCC1SCC2NC(=O)NC21` (stereo not drawn) [Biotin] as the compound, how does the LC retention time read?
Answer: 3.27 min

Question: With `C=C(OP(=O)(O)O)C(=O)O` [PEP] as the compound, how does the LC retention time read?
Answer: 13.7 min

Question: For `O=C(CO)COP(=O)(O)O` [Triose phosphate], which LC retention time is on record?
Answer: 10.9 min

Question: For `Nc1nc2c(ncn2C2OC(COP(=O)(O)OP(=O)(O)OP(=O)(O)O)C(O)C2O)c(=O)[nH]1` (stereo not drawn) [GTP], which LC retention time is on record?
Answer: 17 min

Question: For `NC(=O)c1ccc[n+](C2OC(COP(=O)(O)OP(=O)(O)OCC3OC(n4cnc5c(N)ncnc54)C(O)C3O)C(O)C2O)c1` (stereo not drawn) [NAD], which LC retention time is on record?
Answer: 9.03 min

Question: For `Nc1ncnc2nc[nH]c12` [Adenine], which LC retention time is on record?
Answer: 3.45 min

Question: Which LC retention time does the source give for `NC(=O)c1ccc[n+](C2OC(COP(=O)(O)OP(=O)(O)OCC3OC(n4cnc5c(N)ncnc54)C(OP(=O)(O)O)C3O)C(O)C2O)c1` (stereo not drawn) [NADP] here?
Answer: 13.4 min

Question: For `Cc1ncc(C[n+]2csc(CCO)c2C)c(N)n1` [Thiamine], which LC retention time is on record?
Answer: 12.8 min

Question: With `CC(O)C(N)C(=O)O` (stereo not drawn) [Threonine] as the compound, how does the LC retention time read?
Answer: 8.21 min

Question: Which LC retention time does the source give for `O=C(O)C1(O)CC(O)C(O)C(O)C1` (stereo not drawn) [Quinic Acid] here?
Answer: 6.61 min

Question: Which LC retention time does the source give for `Nc1nc2ncc(CNc3ccc(C(=O)NC(CCC(=O)O)C(=O)O)cc3)nc2c(=O)[nH]1` (stereo not drawn) [Folic Acid] here?
Answer: 14.3 min

Question: With `NC(CCC(=O)NC(CS)C(=O)NCC(=O)O)C(=O)O` (stereo not drawn) [GSH] as the compound, how does the LC retention time read?
Answer: 8.79 min

Question: For `O=c1ccn(C2OC(COP(=O)(O)O)C(O)C2O)c(=O)[nH]1` (stereo not drawn) [UMP], which LC retention time is on record?
Answer: 9.35 min

Question: With `O=c1ccn(C2OC(COP(=O)(O)OP(=O)(O)O)C(O)C2O)c(=O)[nH]1` (stereo not drawn) [UDP] as the compound, how does the LC retention time read?
Answer: 12.3 min

Question: Which LC retention time does the source give for `NC(=O)CC(N)C(=O)O` (stereo not drawn) [Asparagine] here?
Answer: 10.7 min

Question: Which LC retention time does the source give for `O=C(O)c1cccnc1` [Nicotinic acid] here?
Answer: 2.38 min

Question: Which LC retention time does the source give for `CC(=O)NC1C(OP(=O)(O)OP(=O)(O)OCC2OC(n3ccc(=O)[nH]c3=O)C(O)C2O)OC(CO)C(O)C1O` (stereo not drawn) [UDP-GlcNAc] here?
Answer: 11.9 min
